Results on 61 molecules are retold here after a melting point compilation (Tetko et al.; mined from patent text by program, amines drawn as free bases though some values may be those of a salt).

As a reminder, the melting point is the temperature of the solid-liquid transition.

Consider `CC(NC(=O)OC(C)(C)C)C(=O)NC1CCN(c2c(F)cc3c(=O)c(C(=O)O)cn(C4CC4)c3c2F)C1` (stereo unspecified), for which the melting point lay in the range of 185 to 187 °C.
The same measure for `CC#CC=NNC(=O)c1cc(OC)cc(Oc2cccc(C(F)(F)F)c2)n1`: 147 to 148 °C; for `Cc1ccc2cccc(OCc3cccc(N)c3C)c2n1`: 223 to 227 °C; for `COc1cc(C(=O)c2c(C)c(C(=O)O)c3ccccn23)ccc1[N+](=O)[O-]`: 215 °C.
The same measure for `N#Cc1c(N2CCN(C(=O)c3ccco3)CC2)c2cc(Cl)ccc2n(Cc2ccccc2)c1=O`: 221 °C; for `Cc1cc(-c2cccnc2)cc2ccc(=O)[nH]c12`: 236 °C.
Molecule `CCSc1nc(O)ns1` displayed a melting point of 129 °C.
`CON(C(=O)c1cn(C)nc1C(F)F)C(C)Cc1c(Cl)cc(Cl)cc1Cl` (stereo unspecified): the melting point was in the range of 110 to 112 °C.
The same measure for `Cc1ccc(S(=O)(=O)OCCCCCCCl)cc1`: 27 to 28 °C; for `CS(=O)(=O)c1cc(C(F)(F)F)ccc1C(=O)CC(=O)C1CC1`: 123 to 125 °C.
To `COc1ccc(Oc2ccc(F)cc2)cc1C#CC(C)N(O)C(N)=O` (stereo unspecified) belongs 141 to 142 °C; to `O=C(O)C1CCC(=O)N1Cc1ccccc1C(F)(F)F` (stereo unspecified), 139 to 141 °C; to `CC(C)C(NC(=O)c1ccc(C(=O)NCc2ccc([N+](=O)[O-])cc2)cc1)C(=O)N1CCCC1C(=O)NC(C(=O)C(F)(F)F)C(C)C` (mixture of isomers), 94 to 96 °C.
In turn, `CN1CCN(C(=O)CC2CN=C(c3cc4cccc(N(C)S(=O)(=O)c5cccs5)c4[nH]3)S2)CC1` (stereo unspecified) gave a melting point of 151 to 153 °C.
To `CCc1cc(=O)oc2cc(O)cc(O)c12` belongs 241 to 243 °C; to `Nc1cnc2ccc(-c3ccccc3)cc2c1Nc1ccccc1Br`, 174 to 177 °C.
To `O=C(Oc1cc2ccccc2cn1)c1cc2ccccc2oc1=O` belongs 160 to 163 °C.
The same measure for `O=C(O)CCCCC=Cc1cc(-c2ccccc2)c2ccccc2n1`: 152 to 154 °C; for `CCN(CC)CCn1cc(C(=O)NCc2ccc(Cl)cc2)c(=O)c2cc(CCCO)sc21`: 111 to 114 °C.
`CCc1nc2c(N)nc3cc(OCCNC(=O)OC(C)(C)C)ccc3c2n1CC1CCOCC1` gave a melting point of 200 to 201 °C.
To `NC(=O)Cc1ccc(OCC(O)CNCCCCn2cnc3ccccc32)cc1` (stereo unspecified) belongs 119 to 123 °C.
To `Cc1ccc([C@@H]2Sc3ccccc3NC(=O)[C@@H]2CN2CCN(C)CC2)cc1` (relative stereo) belongs 196 °C.
To `CC(=O)Oc1cc(Oc2ccccc2)c(OC(C)=O)c2ccccc12` belongs 137 to 138 °C.
Molecule `O=C(c1ccc(-c2nc(C(=O)O)co2)cc1)c1cccnc1` registered a melting point of 281 to 282 °C.
On to `CC(C)Cc1csc2[nH]c(=O)c(=O)[nH]c12`, for which the melting point is over 270 °C.
Regarding `CC(O)c1cc2c(=O)n(NS(C)(=O)=O)c(=O)[nH]c2cc1C(F)(F)F` (stereo unspecified), the melting point lay within 263 to 268 °C.
In turn, `CC=C1CCC(C(=O)OCCOC(=O)C2=C(C)C(=CC)CC2)=C1C` came in with a melting point of 95 to 97 °C.
To `O=Cc1cc(C#Cc2cccc(Br)c2)c[nH]1` belongs 152 to 156 °C.
To `CC(C)Nc1nc2c(Br)c(Cl)c(Cl)cc2n1[C@H]1O[C@@H](CO)[C@H](O)[C@@H]1O` belongs 221 to 222 °C.
The same measure for `Cc1ccc(-c2c(-c3ccc(S(C)(=O)=O)cc3)[nH]c3ccccc23)cc1`: 197 to 198 °C; for `CC1(C)OC(C=Cc2ccc(F)cc2F)=CC1=O`: 98.5 to 100 °C.
In the case of `CC1CCCCN1CCCNC(=O)c1ccccc1C(c1ccc(O)cc1)c1ccc(O)cc1` (stereo unspecified), the melting point was 118 to 120 °C.
To `COc1ccc(-c2cnn3cc(C(=O)O)cnc23)cc1OC` belongs 229 to 231 °C; to `COc1ccc(C#Cc2ccc(OC3CN4CCC3CC4)cc2)cc1` (stereo unspecified), 112 to 115 °C; to `CCOC(=O)ON=C1Cc2ccccc2N(C(N)=O)c2ccccc21`, 189 to 190 °C.
Molecule `COC(C)C(O)(Cc1ccc(Cl)cc1Cl)c1cccnc1` (stereo unspecified) displayed a melting point of 94 to 95 °C.
To `COc1c(Nc2ncc(Cl)c(Nc3ccccc3S(=O)(=O)N3CCC(O)C3)n2)ccc2c1CCCC(NCCO)C2` (stereo unspecified) belongs 90 to 92 °C; to `OC1CSC(Oc2cccc(-c3ncccc3Cl)c2)C(O)C1O` (stereo unspecified), 217 °C.
`Cc1c(Br)csc1-c1nc(-c2c(F)cccc2Cl)nn1C` showed a melting point of 111 to 112 °C.
Molecule `O=C(Nc1nc2c(Oc3cc(-c4ccc(C(F)(F)F)cc4)ncn3)cccc2s1)C(O)c1ccccc1` (stereo unspecified) came in with a melting point of 198 to 205 °C.
To `CN1c2ccc(C#CCOC3CCCCO3)cc2C(O)=C(C(=O)NCc2ccc(Cl)cc2)S1(=O)=O` (stereo unspecified) belongs 148 to 149 °C.
To `O=C(Nc1cccc2c(-n3ccnc3)c(Br)cnc12)c1c(-n2ccnc2)cccc1-n1ccnc1` belongs 175 to 185 °C; to `COCCN1CCN(C(C)c2ccc(-c3ccc(F)cc3)cc2)CC1` (stereo unspecified), 61 to 62 °C; to `CS(=O)(=O)N1Cc2cccc(-c3ccc4cnc(Nc5ccc(C6CN(CC(N)=O)C6)cc5)nn34)c2C1`, 216 to 218 °C.
The molecule `CC1CN(CC(C)C(O)c2ccc(C(C)(C)C)cc2)CC(C)O1` (stereo unspecified) gave a melting point of 49 to 50 °C.
`COc1cc(N)c(Cl)cc1C(=O)NCC1CCN(CCCCCC(=O)c2ccc(C)cc2)CC1` displayed a melting point of 130 to 131 °C.
Consider `COc1ccc2c(c1)N(c1ccc(F)cc1)C(=O)C2(CCc1nnn[nH]1)NC(=O)c1cc2ccccc2cn1` (stereo unspecified), for which the melting point lay within 154 to 160 °C.
On to `CCCCc1nc(Cl)c(C(=O)O)n1Cc1ccc2oc(-c3ccccc3-c3nnn[nH]3)c(OC)c2c1`, for which the melting point was 140 to 144 °C.
Molecule `N#Cc1cc(N)cc([N+](=O)[O-])c1` came in with a melting point of 168 to 170 °C.
In the case of `O=C(CC1CSCCC1=O)c1ccc(Cl)cc1` (stereo unspecified), the melting point was 78 to 81 °C.
The same measure for `COc1ccc(-n2nc(OC)cc2-c2ccc(C#N)cc2)cc1`: 112 to 113 °C; for `CCOC(=O)N1CCC(=C2c3ccc(Cl)cc3OCc3cc(Br)cnc32)CC1`: 148 to 149 °C.
To `CC(c1nnc2c(=O)[nH]c3cc(C(F)(F)F)c(Br)cc3n12)P(=O)(O)O` (stereo unspecified) belongs over 300 °C; to `CC1C(C)(C)c2ccc(C(=O)CCC(=O)O)cc2C1(C)C` (stereo unspecified), 161 °C; to `S=C=Nc1cccc2ccoc12`, 45 to 46 °C.
To `CC1=C(c2ccc(C(=O)N3Cc4ccc(C(=O)C(Cl)(Cl)Cl)n4Cc4ccccc43)cc2)CCCC1` belongs 171 °C.
As to `C=CC1CCC2(C)C(CCC3C4CCC(=O)C4(C)CCC32)C1` (stereo unspecified), the melting point was in the range of 100 to 102 °C.
The molecule `O=C(O)CC[C@H]1O[C@@H](c2ccccc2)c2ccccc2N(Cc2ccccc2)C1=O` (relative stereo) showed a melting point of 112 to 114 °C.
The same measure for `CC(C)(C)OC(=O)N1CCO[C@@H](c2ccc(Br)cc2)C1`: 97.2 °C; for `CCc1ccccc1NC=C1C(=O)N(c2ccc(N(S(C)(=O)=O)S(C)(=O)=O)cc2)N=C1C`: 268 °C; for `CCCCOC(=O)[C@H]1CN(c2cc(F)c(C3CCSCC3)c(F)c2)C(=O)O1`: 86 to 89 °C.
